Measurements from the Kinase Knowledgebase extract (Sharma et al. 2016).

Target: CDK2 (human) (UniProt P24941)
Experiment: Enzyme Assay
Details: for inhibition: concentration not given here

Row | SMILES | inhibition | Ki
1 | Nc1nc(NC2CCN(C(=O)CN3C(=O)CSC3=S)CC2)sc1C(=O)c1c(F)cccc1F | 64% | 
2 | Nc1nc(NC2CCN(C(=O)C/C=C/c3ccccc3)CC2)sc1C(=O)c1c(F)cccc1F | 29% | 
3 | Cc1cccc(CC(=O)N2CCC(Nc3nc(N)c(C(=O)c4c(F)cccc4F)s3)CC2)c1 | 55% | 
4 | COc1ccccc1/C=C\C(=O)N1CCC(Nc2nc(N)c(C(=O)c3c(F)cccc3F)s2)CC1 | 70% | 
5 | Cc1ccc(C(=O)/C=C/C(=O)N2CCC(Nc3nc(N)c(C(=O)c4c(F)cccc4F)s3)CC2)cc1 | 78% | 
6 | Nc1nc(NC2CCN(C(=O)COc3cccc(C=O)c3)CC2)sc1C(=O)c1c(F)cccc1F | 38% | 
7 | Nc1nc(NC2CCN(C(=O)C(O)c3ccccc3)CC2)sc1C(=O)c1c(F)cccc1F (stereo not given) | 75% | 
8 | Nc1nc(NC2CCN(C(=O)/C=C/c3ccccc3Cl)CC2)sc1C(=O)c1c(F)cccc1F | 83% | 
9 | COc1ccc(C(=O)N2CCC(Nc3nc(N)c(C(=O)c4c(F)cccc4F)s3)CC2)c(OC)c1 | -11% | 
10 | CC(=O)CC(=O)C(=O)N1CCC(Nc2nc(N)c(C(=O)c3c(F)cccc3F)s2)CC1 | 50% | 
11 | COc1ccccc1/C=C/C(=O)N1CCC(Nc2nc(N)c(C(=O)c3c(F)cccc3F)s2)CC1 | 92% | 
12 | Nc1nc(NC2CCN(C(=O)Cc3ccncc3)CC2)sc1C(=O)c1c(F)cccc1F | 17% | 
13 | Nc1nc(NC2CCN(S(=O)(=O)c3c(Cl)cc(C(F)(F)F)cc3Cl)CC2)sc1C(=O)c1c(F)cccc1F | -23% | 
14 | Nc1nc(NC2CCN(C(=O)/C=C/c3ccncc3)CC2)sc1C(=O)c1c(F)cccc1F | 80% | 
15 | Cc1cccc(OCC(=O)N2CCC(Nc3nc(N)c(C(=O)c4c(F)cccc4F)s3)CC2)c1 | 70% | 
16 | Cc1ccc(OCC(=O)N2CCC(Nc3nc(N)c(C(=O)c4c(F)cccc4F)s3)CC2)cc1C | 52% | 
17 | Nc1nc(NC2CCN(C(=O)C(O)c3cc(F)cc(F)c3)CC2)sc1C(=O)c1c(F)cccc1F (stereo not given) | 52% | 
18 | CCOC(=O)C(=O)N1CCC(Nc2nc(N)c(C(=O)c3c(F)cccc3F)s2)CC1 | -13% | 
19 | CC(SCc1ccccc1)C(=O)N1CCC(Nc2nc(N)c(C(=O)c3c(F)cccc3F)s2)CC1 (stereo not given) | 50% | 
20 | Cc1cccc(OCC(=O)N2CCC(Nc3nc(N)c(C(=O)c4c(F)cccc4F)s3)CC2)c1C | 40% | 
21 | C/C=C/C(=O)N1CCC(Nc2nc(N)c(C(=O)c3c(F)cccc3F)s2)CC1 | -9% | 
22 | CC(=O)O[C@@H](C(=O)N1CCC(Nc2nc(N)c(C(=O)c3c(F)cccc3F)s2)CC1)c1ccccc1 | 25% | 
23 | Cc1ccc(C(C)C)c(C(=O)N2CCC(Nc3nc(N)c(C(=O)c4c(F)cccc4F)s3)CC2)c1O | 30% | 

Row | SMILES | inhibition | Ki
24 | Nc1nc(NC2CCN(C(=O)c3cc4ccccc4o3)CC2)sc1C(=O)c1c(F)cccc1F | 64% | 
25 | Nc1nc(NC2CCN(C(=O)c3ccc(-c4ccccc4)cc3)CC2)sc1C(=O)c1c(F)cccc1F | -11% | 
26 | C[C@](O)(C(=O)N1CCC(Nc2nc(N)c(C(=O)c3c(F)cccc3F)s2)CC1)c1ccccc1 | 77% | 
27 | COc1cccc(OCC(=O)N2CCC(Nc3nc(N)c(C(=O)c4c(F)cccc4F)s3)CC2)c1 | 61% | 
28 | Nc1nc(NC2CCN(C(=O)/C=C/c3cccc(F)c3)CC2)sc1C(=O)c1c(F)cccc1F | 70% | 
29 | Cc1ccccc1CC(=O)N1CCC(Nc2nc(N)c(C(=O)c3c(F)cccc3F)s2)CC1 | 56% | 
30 | CCCC(CC)CC(=O)N1CCC(Nc2nc(N)c(C(=O)c3c(F)cccc3F)s2)CC1 (stereo not given) | 31% | 
31 | Cc1cccc(/C=C/C(=O)N2CCC(Nc3nc(N)c(C(=O)c4c(F)cccc4F)s3)CC2)c1 | 50% | 
32 | CCC(C)(C)C(=O)N1CCC(Nc2nc(N)c(C(=O)c3c(F)cccc3F)s2)CC1 | 32% | 
33 | C[C@H](CC(=O)N1CCC(Nc2nc(N)c(C(=O)c3c(F)cccc3F)s2)CC1)c1ccccc1 | 49% | 
34 | Nc1nc(NC2CCN(C(=O)c3ccsc3)CC2)sc1C(=O)c1c(F)cccc1F | 52% | 
35 | CC1(C(=O)N2CCC(Nc3nc(N)c(C(=O)c4c(F)cccc4F)s3)CC2)CCCCC1 | -5% | 
36 | Nc1nc(NC2CCN(C(=O)c3ccccn3)CC2)sc1C(=O)c1c(F)cccc1F | 67% | 
37 | CCCCCC#CC(=O)N1CCC(Nc2nc(N)c(C(=O)c3c(F)cccc3F)s2)CC1 | 62% | 
38 | CC(=O)SC(C)CC(=O)N1CCC(Nc2nc(N)c(C(=O)c3c(F)cccc3F)s2)CC1 (stereo not given) | 50% | 
39 | Nc1nc(NC2CCN(C(=O)/C=C/c3cccc(F)c3F)CC2)sc1C(=O)c1c(F)cccc1F | 51% | 
40 | Cc1ccc(C)c(OCC(=O)N2CCC(Nc3nc(N)c(C(=O)c4c(F)cccc4F)s3)CC2)c1 | 26% | 
41 | Nc1nc(NC2CCN(C(=O)CCC(F)(F)F)CC2)sc1C(=O)c1c(F)cccc1F | 45% | 
42 | Cc1cccc(C(=O)N2CCC(Nc3nc(N)c(C(=O)c4c(F)cccc4F)s3)CC2)n1 | 60% | 
43 | Nc1nc(NC2CCN(C(=O)C(CO)c3ccccc3)CC2)sc1C(=O)c1c(F)cccc1F (stereo not given) | 57% | 
44 | CC/C=C/CC(=O)N1CCC(Nc2nc(N)c(C(=O)c3c(F)cccc3F)s2)CC1 | 46% | 
45 | COc1cc(C(=O)N2CCC(Nc3nc(N)c(C(=O)c4c(F)cccc4F)s3)CC2)cc(OC)c1C | 58% | 
46 | NC(=O)Nc1ccc(C(=O)N2CCC(Nc3nc(N)c(C(=O)c4c(F)cccc4F)s3)CC2)cc1 | 76% | 

Row | SMILES | inhibition | Ki
47 | CC(C)C(C)C(=O)N1CCC(Nc2nc(N)c(C(=O)c3c(F)cccc3F)s2)CC1 (stereo not given) | 35% | 
48 | CC(=O)/C=C/C(=O)N1CCC(Nc2nc(N)c(C(=O)c3c(F)cccc3F)s2)CC1 | 5% | 0.5 µM
49 | Nc1nc(NC2CCN(C(=O)c3cnccn3)CC2)sc1C(=O)c1c(F)cccc1F | 58% | 
50 | Cc1ccc(F)cc1C(=O)N1CCC(Nc2nc(N)c(C(=O)c3c(F)cccc3F)s2)CC1 | 52% | 
51 | COc1c(C)cc(C(=O)N2CCC(Nc3nc(N)c(C(=O)c4c(F)cccc4F)s3)CC2)cc1C | 39% | 
52 | CCC(C)(O)CC(=O)N1CCC(Nc2nc(N)c(C(=O)c3c(F)cccc3F)s2)CC1 (stereo not given) | 47% | 
53 | CSCCC(=O)N1CCC(Nc2nc(N)c(C(=O)c3c(F)cccc3F)s2)CC1 | 42% | 
54 | Nc1nc(NC2CCN(C(=O)CCC(=O)c3cccs3)CC2)sc1C(=O)c1c(F)cccc1F | 63% | 
55 | Cc1ccoc1C(=O)N1CCC(Nc2nc(N)c(C(=O)c3c(F)cccc3F)s2)CC1 | 31% | 
56 | Cc1ccc(/C=C/C(=O)N2CCC(Nc3nc(N)c(C(=O)c4c(F)cccc4F)s3)CC2)cc1C | 52% | 
57 | Cc1cc(F)ccc1OCC(=O)N1CCC(Nc2nc(N)c(C(=O)c3c(F)cccc3F)s2)CC1 | 80% | 
58 | Nc1nc(NC2CCN(C(=O)C(O)Cc3ccc(O)cc3)CC2)sc1C(=O)c1c(F)cccc1F (stereo not given) | 34% | 
59 | Nc1nc(NC2CCN(S(=O)(=O)c3ccc(Oc4ccncc4)cc3)CC2)sc1C(=O)c1c(F)cccc1F | -28% | 
60 | Nc1nc(NC2CCN(C(=O)CCc3ccc4c(c3)OCO4)CC2)sc1C(=O)c1c(F)cccc1F | 49% | 
61 | CC[C@H](C(=O)N1CCC(Nc2nc(N)c(C(=O)c3c(F)cccc3F)s2)CC1)c1ccccc1 | 42% | 
62 | C#CCCC(=O)N1CCC(Nc2nc(N)c(C(=O)c3c(F)cccc3F)s2)CC1 | 52% | 
63 | CN(C)CCNc1ccc(S(=O)(=O)N2CCC(Nc3nc(N)c(C(=O)c4c(F)cccc4F)s3)CC2)cn1 |  | 0.0012 µM
64 | Nc1nc(NC2CCN(C(=O)CSc3ccccc3F)CC2)sc1C(=O)c1c(F)cccc1F | 75% | 
65 | CCOc1cccc(C(=O)N2CCC(Nc3nc(N)c(C(=O)c4c(F)cccc4F)s3)CC2)c1 | 75% | 
66 | C=CCCCCC(=O)N1CCC(Nc2nc(N)c(C(=O)c3c(F)cccc3F)s2)CC1 | 16% | 
67 | Nc1nc(NC2CCN(C(=O)C3CC(=O)c4ccccc43)CC2)sc1C(=O)c1c(F)cccc1F (stereo not given) | 79% | 
68 | CC(=O)O[C@H](C(=O)N1CCC(Nc2nc(N)c(C(=O)c3c(F)cccc3F)s2)CC1)c1ccccc1 | 41% | 
69 | Cc1cc(C)c(S(=O)(=O)N2CCC(Nc3nc(N)c(C(=O)c4c(F)cccc4F)s3)CC2)c(C)c1 | -14% | 

Row | SMILES | inhibition | Ki
70 | COc1ccc2[nH]c(C(=O)N3CCC(Nc4nc(N)c(C(=O)c5c(F)cccc5F)s4)CC3)cc2c1 | 35% | 
71 | CCOc1ccc(/C=C/C(=O)N2CCC(Nc3nc(N)c(C(=O)c4c(F)cccc4F)s3)CC2)cc1 | 34% | 
72 | Nc1nc(NC2CCN(C(=O)/C(F)=C/c3ccccc3)CC2)sc1C(=O)c1c(F)cccc1F | 64% | 
73 | Nc1nc(NC2CCN(C(=O)[C@H]3CCC(=O)O3)CC2)sc1C(=O)c1c(F)cccc1F | 76% | 
74 | Nc1nc(NC2CCN(C(=O)c3ccc4ccccc4c3)CC2)sc1C(=O)c1c(F)cccc1F | 38% | 
75 | N#Cc1ccccc1C(=O)N1CCC(Nc2nc(N)c(C(=O)c3c(F)cccc3F)s2)CC1 | 61% | 
76 | Cc1nn(C)c2ncc(C(=O)N3CCC(Nc4nc(N)c(C(=O)c5c(F)cccc5F)s4)CC3)c(Cl)c12 | 16% | 
77 | Cc1c(S(=O)(=O)N2CCC(Nc3nc(N)c(C(=O)c4c(F)cccc4F)s3)CC2)sc2ccc(Cl)cc12 | -2% | 
78 | CC1(C)C2CC[C@@]1(CS(=O)(=O)N1CCC(Nc3nc(N)c(C(=O)c4c(F)cccc4F)s3)CC1)C(=O)C2 | -34% | 
79 | CN(C)N=Nc1ccccc1C(=O)N1CCC(Nc2nc(N)c(C(=O)c3c(F)cccc3F)s2)CC1 | 43% | 
80 | CC(=O)N(C)CC(=O)N1CCC(Nc2nc(N)c(C(=O)c3c(F)cccc3F)s2)CC1 | 40% | 
81 | Nc1nc(NC2CCN(C(=O)CCC(=O)c3ccc(F)cc3)CC2)sc1C(=O)c1c(F)cccc1F | 7% | 
82 | CC(O)CC(=O)N1CCC(Nc2nc(N)c(C(=O)c3c(F)cccc3F)s2)CC1 (stereo not given) | 38% | 
83 | Cc1ccc(C(=O)N2CCC(Nc3nc(N)c(C(=O)c4c(F)cccc4F)s3)CC2)cn1 | 20% | 
84 | CS(=O)(=O)CS(=O)(=O)N1CCC(Nc2nc(N)c(C(=O)c3c(F)cccc3F)s2)CC1 | -23% | 
85 | COc1ncccc1C(=O)N1CCC(Nc2nc(N)c(C(=O)c3c(F)cccc3F)s2)CC1 | 40% | 
86 | Nc1nc(NC2CCN(C(=O)CCCCCc3ccccc3)CC2)sc1C(=O)c1c(F)cccc1F | 12% | 
87 | CCOc1cccc(/C=C/C(=O)N2CCC(Nc3nc(N)c(C(=O)c4c(F)cccc4F)s3)CC2)c1 | 50% | 
88 | CC(=O)CCCCC(=O)N1CCC(Nc2nc(N)c(C(=O)c3c(F)cccc3F)s2)CC1 | 49% | 
89 | Nc1nc(NC2CCN(C(=O)c3ccccc3-n3cccc3)CC2)sc1C(=O)c1c(F)cccc1F | 50% | 
